Results from patent US20100137313A1 (ASTRAZENECA AB, priority 2008, published 2010).

Each compound was assayed against S. pneumoniae Topoisomerase IV ATPase (ParE) (Streptococcus pneumoniae serotype 4, UniProt Q59961) (assay: S. pneumoniae Topoisomerase IV ATPase inhibition). Conditions: values marked * are an average of two or more data points, read-out: % Inh (13 μM) of S. pneumoniae Topoisomerase IV ATPase.
Chain of S. pneumoniae Topoisomerase IV ATPase (ParE) (Q59961 whole entry): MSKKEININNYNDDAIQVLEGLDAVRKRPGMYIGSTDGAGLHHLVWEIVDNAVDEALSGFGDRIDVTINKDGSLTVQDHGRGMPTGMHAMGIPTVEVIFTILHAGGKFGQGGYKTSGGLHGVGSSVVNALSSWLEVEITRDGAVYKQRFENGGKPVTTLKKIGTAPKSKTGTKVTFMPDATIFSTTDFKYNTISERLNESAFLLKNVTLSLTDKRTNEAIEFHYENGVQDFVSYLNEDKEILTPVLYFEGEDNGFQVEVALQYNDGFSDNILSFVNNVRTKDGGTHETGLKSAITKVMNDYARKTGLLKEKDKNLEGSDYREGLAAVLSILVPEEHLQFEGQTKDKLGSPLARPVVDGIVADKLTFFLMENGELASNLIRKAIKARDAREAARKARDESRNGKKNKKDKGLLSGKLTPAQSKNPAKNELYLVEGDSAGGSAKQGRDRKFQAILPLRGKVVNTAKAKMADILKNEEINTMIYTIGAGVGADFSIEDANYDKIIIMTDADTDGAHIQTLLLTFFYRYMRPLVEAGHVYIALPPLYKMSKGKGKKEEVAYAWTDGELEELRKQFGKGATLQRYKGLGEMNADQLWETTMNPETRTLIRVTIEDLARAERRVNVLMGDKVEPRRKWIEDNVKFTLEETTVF
Type: biochemical
How it was run: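 Phosphate release by ParE ATPase from S. pneumoniae read colorimetrically (malachite green, 650 nm), enzyme 1.25 nM, ATP 160 μM, salmon sperm DNA present, buffer 20 mM Tris pH 8.0 with 8 mM MgCl2. IC50 over 10 compound concentrations, EDTA (20 μM) and DMSO controls defining inhibition range.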
Work on `O=C(NCCO)c1cccc(-c2cnc(Nc3ccc(F)c(Cl)c3)nc2-n2ccc(C(F)(F)F)n2)c1` [Example 1146, 3-(2-(3-chloro-4-fluorophenylamino)-4-(3-(trifluoromethyl)-1H-pyrazol-1-yl)pyrimidin-5-yl)-N-(2-hydroxyethyl)benzamide] yielded an inhibition at 13 µM of 100%. In the case of `Fc1ccc(Nc2ncc(-c3cncnc3)c(NCCc3cccnc3)n2)cc1Cl` [Example 45, N^2-(3-chloro-4-fluorophenyl)-N^4-(2-pyridin-3-ylethyl)-5-pyrimidin-5-ylpyrimidine-2,4-diamine], the inhibition at 13 µM is reported as 81.9%. Compound `COc1cc(Nc2ncc(-c3cccc(/C=C/C(=O)O)c3)c(N3CCOCC3)n2)cc([N+](=O)[O-])c1` [Example 453] has an inhibition at 13 µM of 92%. `COc1cc(Nc2ncc(-c3cccc(/C=C/C(=O)O)c3)c(N3CCOCC3)n2)ccc1F` [Example 452] gave an inhibition at 13 µM of 76%. `CC1CN(c2nc(Nc3ccc(F)c(Cl)c3)ncc2-c2cncc(C(=O)O)c2)CC(C)O1` (centres unmarked) [Example 272, 5-(2-(3-chloro-4-fluorophenylamino)-4-(2,6-dimethylmorpholino)-pyrimidin-5-yl)nicotinic acid] gave an inhibition at 13 µM of 81.1%. `COc1cc(Nc2ncc(-c3cnc(OC)c(C(=O)NS(=O)(=O)c4c(C)nn(C)c4C)c3)c(-n3nc(C(F)(F)F)cc3C)n2)cc(OC)c1` [Example 842, 5-{2-[(3,5-dimethoxyphenyl)amino]-4-[5-methyl-3-(trifluoromethyl)-1H-pyrazol-1-yl]pyrimidin-5-yl}-2-methoxy-N-[(1,3,5-trimethyl-1H-pyrazol-4-yl)sulfonyl]pyridine-3-carboxamide] showed an inhibition at 13 µM of 97%. `COC(=O)c1cc2ccc(-c3cnc(Nc4ccc(F)c(Cl)c4)nc3N3CCOCC3)cc2[nH]1` [Example 1053, Methyl 6-(2-(3-chloro-4-fluorophenylamino)-4-morpholinopyrimidin-5-yl)-1H-indole-2-carboxylate] showed an inhibition at 13 µM of 0%. `O=C(O)/C=C/c1cccc(-c2cnc(Nc3ccc(F)c(Br)c3)nc2N2CCOCC2)c1` [Example 454] gave an inhibition at 13 µM of 92%. `N#Cc1cc(Cl)cc(Nc2ncc(-c3cccc(/C=C/C(=O)O)c3)c(N3CCOCC3)n2)c1` [Example 408, (E)-3-{3-[2-(3-Chloro-5-cyano-phenylamino)-4-morpholin-4-yl-pyrimidin-5-yl]-phenyl}-acrylic acid] was tested, and the inhibition at 13 µM was 100%. Compound `Fc1ccc(Nc2ncc(-c3cncnc3)c(-n3ccnc3)n2)cc1Cl` [Example 1113, N-(3-chloro-4-fluorophenyl)-4-imidazol-1-yl-5-pyrimidin-5-ylpyrimidin-2-amine] has an inhibition at 13 µM of 72%. For `COc1cc(Nc2ncc(-c3cnc(OC)c(-c4noc(=O)[nH]4)c3)c(-n3nc(C(F)(F)F)cc3C)n2)cc(OC)c1` [Example 975, 3-(5-(2-(3,5-dimethoxyphenylamino)-4-(5-methyl-3-(trifluoromethyl)-1H-pyrazol-1-yl)pyrimidin-5-yl)-2-methoxypyridin-3-yl)-1,2,4-oxadiazol-5(4H)-one], the inhibition at 13 µM was 100%. Work on `O=S(=O)(NCCO)c1cccc(-c2cnc(Nc3ccc(F)c(Cl)c3)nc2-n2ccc(C(F)(F)F)n2)c1` [Example 997, 3-(2-(3-Chloro-4-fluorophenylamino)-4-(3-(trifluoromethyl)-1H-pyrazol-1-yl)pyrimidin-5-yl)-N-(2-hydroxyethyl)benzenesulfonamide] yielded an inhibition at 13 µM of 100%. In the case of `COc1cc(Nc2ncc(-c3ccc(C(=O)O)s3)c(NCCCN(C)C)n2)c(OC)cc1Cl` [Example 347, 5-(2-(4-chloro-2,5-dimethoxyphenyl-amino)-4-(3-(dimethylamino)propylamino)pyrimidin-5-yl)thiophene-2-carboxylic acid], the inhibition at 13 µM is reported as 42.2%. `CCOC(=O)c1cncc(-c2cnc(Nc3ccc(F)c(Cl)c3)nc2NCCCNC(=O)c2cnc(C)cn2)c1` [Example 141, ethyl 5-(2-(3-chloro-4-fluorophenylamino)-4-(3-(5-methylpyrazine-2-carboxamido)propyl-amino)pyrimidin-5-yl)nicotinate] was tested, and the inhibition at 13 µM was 63.3%. With `Cc1cc(C(F)(F)F)nn1-c1nc(Nc2ccc(F)c(Cl)c2)ncc1-c1cnc(OCCc2ccncc2)c(C(=O)O)c1` [Example 871, 5-(2-(3-chloro-4-fluorophenylamino)-4-(5-methyl-3-(trifluoromethyl) 1H-pyrazol-1-yl)pyrimidin-5-yl)-2-(2-(pyridin-4-yl)ethoxy)nicotinic acid] the inhibition at 13 µM was 100%. Work on `O=C(O)c1cncc(-c2cnc(Nc3ccc(F)c(Cl)c3)nc2NCCc2c[nH]cn2)c1` [Example 257, 5-(2-[(3-chloro-4-fluorophenyl)amino]-4-{[2-(1H-imidazol-4-yl)ethyl]amino}pyrimidin-5-yl)pyridine-3-carboxylic acid] yielded an inhibition at 13 µM of 83.8%. `COc1ncc(-c2cnc(Nc3ccc(F)c(Cl)c3)nc2NCCCN(C)C)cn1` [Example 1, N^2-(3-chloro-4-fluorophenyl)-N^4-(3-(dimethylamino)propyl)-2′-methoxy-5,5′-bipyrimidine-2,4-diamine] showed an inhibition at 13 µM of 5.14%. Work on `O=C(O)c1cncc(-c2cnc(Nc3ccc(F)c(Cl)c3)nc2NCc2ccco2)c1` [Example 237, 5-[2-[(3-chloro-4-fluorophenyl)amino]-4-(furan-2-ylmethylamino)pyrimidin-5-yl]pyridine-3-carboxylic acid] yielded an inhibition at 13 µM of 85.4%. In the case of `CCOC(=O)/C=C/c1cccc(-c2cnc(Nc3ccc(F)c(Cl)c3)nc2NCc2cnn(C)c2)c1` [Example 168, (E)-ethyl 3-(3-(2-(3-chloro-4-fluorophenylamino)-4-((1-methyl-1H-pyrazol-4-yl)methylamino)pyrimidin-5-yl)phenyl)acrylate], the inhibition at 13 µM is reported as 66.4%. `Cn1cc(CNc2nc(Nc3ccc(F)c(Cl)c3)ncc2-c2cncc(C(=O)O)c2)cn1` [Example 282, 5-(2-(3-chloro-4-fluorophenylamino)-4-((1-methyl-1H-pyrazol-4-yl)methylamino)pyrimidin-5-yl)nicotinic acid] showed an inhibition at 13 µM of 117%. Compound `COc1nc(OC)c(-c2cnc(Nc3ccc(F)c(Cl)c3)nc2-n2nc(C(F)(F)F)cc2C)cc1C(=O)O` [Example 1131, 5-(2-(3-chloro-4-fluorophenylamino)-4-(5-methyl-3-(trifluoromethyl)-1H-pyrazol-1-yl)pyrimidin-5-yl)-2,6-dimethoxynicotinic acid] has an inhibition at 13 µM of 100%. `Cn1cc(-c2cnc(Nc3ccc(F)c(Cl)c3)nc2-n2ccc(C(F)(F)F)n2)cc(C(=O)NS(C)(=O)=O)c1=O` [Example 1048, 5-(2-(3-Chloro-4-fluorophenylamino)-4-(3-(trifluoromethyl)-1H-pyrazol-1-yl)pyrimidin-5-yl)-1-methyl-N-(methylsulfonyl)-2-oxo-1,2-dihydropyridine-3-carboxamide] gave an inhibition at 13 µM of 100%. With `COC(=O)CC(=O)c1cncc(-c2cnc(Nc3ccc(F)c(Cl)c3)nc2N2CCOCC2)c1` [Example 1039, Methyl 3-(5-(2-(3-chloro-4-fluorophenylamino)-4-morpholinopyrimidin-5-yl)pyridin-3-yl)-3-oxopropanoate] the inhibition at 13 µM was 90%. `Cc1cc(C)cc(Nc2ncc(-c3cncc(C(=O)O)c3)c(-n3ccc(C(F)(F)F)n3)n2)c1` [Example 637, 5-{2-[(3,5-dimethylphenyl)amino]-4-[3-(trifluoromethyl)-1H-pyrazol-1-yl]pyrimidin-5-yl}pyridine-3-carboxylic acid] showed an inhibition at 13 µM of 100%. For `O=C(O)c1cccc(-c2cnc(Nc3ccc(F)c(Cl)c3)nc2-n2ccc(C(F)(F)F)n2)c1` [Example 570, 3-(2-(3-chloro-4-fluorophenylamino)-4-(3-(trifluoromethyl)-1H-pyrazol-1-yl)pyrimidin-5-yl)benzoic acid], the inhibition at 13 µM was 91%. Compound `CNC(=O)C1CCN(c2nc(Nc3ccc(F)c(Cl)c3)ncc2-c2cncnc2)CC1` [Example 63, 1-[2-[(3-chloro-4-fluorophenyl)amino]-5-pyrimidin-5-ylpyrimidin-4-yl]-N-methylpiperidine-4-carboxamide] has an inhibition at 13 µM of 69.9%. Work on `CC(=O)NC1CCN(c2nc(Nc3ccc(F)c(Cl)c3)ncc2-c2cncc(C(=O)O)c2)CC1` [Example 256, 5-[4-(4-acetamidopiperidin-1-yl)-2-[(3-chloro-4-fluorophenyl)amino]-pyrimidin-5-yl]pyridine-3-carboxylic acid] yielded an inhibition at 13 µM of 78.8%. Compound `CN1CCN(c2nc(Nc3ccc(F)c(Cl)c3)ncc2-c2cncc(C(=O)O)c2)CC1` [Example 285, 5-(2-(3-chloro-4-fluorophenylamino)-4-(4-methylpiperazin-1-yl)pyrimidin-5-yl)nicotinic acid] has an inhibition at 13 µM of 61.9%. Work on `Cc1nccn1-c1nc(Nc2ccc(F)c(Cl)c2)ncc1-c1cncc(C(=O)O)c1` [Example 310, 5-{2-[(3-chloro-4-fluorophenyl)amino]-4-(2-methyl-1H-imidazol-1-yl)pyrimidin-5-yl}pyridine-3-carboxylic acid] yielded an inhibition at 13 µM of 80%. `COCCn1cc(C(=O)O)c(=O)c2cc(-c3cnc(Nc4ccc(F)c(Cl)c4)nc3NCCCN(C)C)ccc21` [Example 1057, 6-(2-(3-Chloro-4-fluorophenylamino)-4-(3-(dimethylamino)propylamino)pyrimidin-5-yl)-1-(2-methoxyethyl)-4-oxo-1,4-dihydroquinoline-3-carboxylic acid] showed an inhibition at 13 µM of 83%. `CCOC(=O)c1cncc(-c2cnc(Nc3ccc(F)c(Cl)c3)nc2N2CCOC(CO)C2)c1` (centres unmarked) [Example 978, Ethyl 5-(2-(3-chloro-4-fluorophenylamino)-4-(2-(hydroxymethyl)morpholino)pyrimidin-5-yl)nicotinate] was tested, and the inhibition at 13 µM was 82%. With `COc1ncc(-c2cnc(Nc3ccc(F)c(Cl)c3)nc2NCC2CCN(C(=O)C3CC3)CC2)cn1` [Example 466, (4-((2-(3-chloro-4-fluorophenylamino)-2′-methoxy-5,5′-bipyrimidin-4-ylamino)methyl)piperidin-1-yl)(cyclopropyl)methanone] the inhibition at 13 µM was 78%.
